Data on five compounds can be found in patent publication US9107954B2, “Bivalent ligands for the treatment of neurological disorders” (Virginia Commonwealth University, priority 2012, dated 2015).

SMILES strings stand for the structures. Like-named read-outs stand apart in the source and are kept apart here.

In data set [1] the test system is R5-tropic HIV-1SF162 in primary human astrocytes. Kind of data set: HIV-1SF162 infectivity, Tat luciferase reporter assay in primary human astrocytes. It is filed as cell-based. Conditions: for effect on viral entry / Tat production, Example 4 / effect on virus invasion (Tat expression), Example 3: MVC 100 nM; for effect on viral entry / Tat production, Example 4: NTX 1.5 μM, 18 h; for effect on virus invasion (Tat expression), Example 3: NTX 1500 nM, naltrexone groups with and without morphine. As to the method:
Primary human astrocytes (ScienCell catalog #1901) were cultured in 24-well plates and transfected with the plasmid pBlue3′LTR-luc (NIH AIDS Research and Reference Reagent Program) using Lipofectamine 2000 (Invitrogen) followed by infection with HIV-1. After 18-20 h cells were rinsed twice in 1×PBS then lysed in Cell Culture Lysis Reagent (Promega) and relative Tat protein expression was determined by measuring luciferase activity using the Luciferase Assay System (Promega; catalog # E1500). Light units were measured using a PHERAstar FS plate reader (BMG Labtech).
Primary human astroglial cells were infected by incubation with the neurotropic HIV-1 strain SF162. A concentration of HIV-1 p24 50 pg/10^6 cells was used, and a no virus condition served as a negative control. Viral stocks were quantified by assaying for HIV-1 p24 (Alliance p24 Antigen ELISA Kit; Advanced Bioscience, Kensington, Md.).
HIV-1SF162 infectivity of human astroglia was determined based on the relative amount of Tat protein expressed by the virus using a luciferase-based reporter assay. Reporters under the control of the long terminal repeat (LTR) viral promoter are a robust means of measuring HIV-1 infection, since the LTR is activated by HIV-1 Tat, which is only expressed by infected cells.
As the bivalent ligand 1 has been designed as a molecular probe to study the underlying mechanisms of opioid-enhanced NeuroAIDS by targeting the MOR-CCR5 heterodimerization, a luciferase-based HIV-1SF162) infection assay measuring the relative transactivator of transcription (Tat) protein expression in human astrocytes was performed (FIG. 15). Tat is encoded by HIV-1 and is the first protein to be produced after HIV-1 infection. Thus, Tat expression level is directly proportioned to the extent of HIV-1 invasion. Astrocytes were chosen based on the following facts: first, astrocytes express both the MOR and the CCR5. Second, the human blood-brain barrier (BBB) is composed of interacting adjacent cerebral endothelial cells (CECs) and astrocytes, which makes astrocytes a readily accessible target during the course of HIV infection. Thirdly, during NeuroAIDS development astroglia are important cellular sites within the CNS where opioids synergistically potentiate the pathophysiological effects of HIV-1 infection.
(In general: A reporter such as luciferase makes a cellular process visible.)

For a further data set, the system named is human astrocytes. Kind of data set: Cytotoxicity assay, AOPI live/dead labeling of human astrocytes. Format: cell-based. Here is the method:
Cell viability was assessed by measurement of both live and dead cells using dual (green/red) fluorescence labeling with AOPI analyzed with Cellometer Vision CBA (Nexcelom Bioscience LLC).
To determine whether HIV-1±morphine exposure affected astrocyte viability in the presence or absence of MVC or the bivalent compound, a cell death assay was performed at 24 h after treatment.

The test system of data set [2] is fusion of CCR5-MOR CHO target cells (CD4) with HEK effector cells (HIV-1 gp140). It is filed as cell-based. Conditions: for effect on cell fusion: 1 at 3000 nM, 2 at 10000 nM, maraviroc at 100 nM.
The target of data set [3] is T1, MOR (Homo sapiens (Human), UniProt P35372). The data set can be described thus: Calcium mobilization assay, CCR5-MOR CHO co-expressed cell line (Gqi5), DAMGO-stimulated. Format: cell-based. Conditions: cells stimulated with DAMGO; read-out: MOR IC50. Here is the method: (§1) Having a cell line that consistently expresses both CCR5 and MOR was essential for studying how the two receptors interact with each other using calcium mobilization assays and cell fusion assays. A previously established MOR Chinese hamster ovarian (CHO) cell line was transfected with a plasmid containing CCR5 tagged with a yellow fluorescent protein on its N-terminus (CCR5-YFP). ^1 After 48 hours cells were sorted based upon the presence of the yellow fluorescent protein tag using a flow cytometer. Cells containing the tagged receptors were then cultured and used in the subsequent assays.
(§2) Calcium mobilization is directly related to G protein-coupled receptor (GPCR) activation and therefore is a useful technique to study the functional activity of new ligands.

Data set [4] has as its target CCR5 (Homo sapiens (Human), UniProt P51681). The data set can be described thus: Calcium mobilization assay, CCR5-MOR CHO co-expressed cell line (Gqi5), RANTES-stimulated. Format: cell-based. As to the method: as §1, §2
In general terms: Calcium flux is commonly read through the fluorescence of an indicator in the cells.

The next data set has as its target mu opioid receptor (MOR) (Homo sapiens (Human), UniProt P35372). Kind of data set: MOR competitive radioligand binding, [3H]naloxone, hMOR-expressed CHO cells. Here is the method:
MOR/CHO cell culture and membrane homogenate preparation followed literature report^52.
Saturation binding was performed by incubating membranes for 90 minutes at 30° C. with 0.5-15 nM [^3H]naloxone in assay buffer in a 0.5 mL volume. […] The reaction was terminated by rapid filtration through Whatman GF/B glass fiber filters, followed by 3 washes with 3 mL ice-cold Tris buffer. Bound radioactivity will be determined by liquid scintillation spectrophotometry at 45% efficiency for [^3H].
For competition binding assay (agonists or antagonists), Hill plots linear regression analysis and the Cheng-Prusoff equation were applied to determine the IC50 and Ki values. In [^35S]GTPγS binding assays, agonist concentration effect curves were fit by non-linear regression to obtain Emax and EC50 values; antagonist inhibition of agonist-stimulated [^35S]GTPγS binding was analyzed by Hill analysis and AD50 values were corrected to Ki values using the Cheng-Prusoff equation. All analyses were using Prism 4.0.
Herein is reported the characterization of this novel molecular probe in for its binding affinity, Ca^2+ flux functional activity, and HIV-1 inhibition potency.

Data set [5] deals with T1, MOR. The data set can be described thus: DAMGO-stimulated Ca2+ flux assay in hMOR-CHO cells transfected with Gqi5. It is filed as cell-based.
For data set [6], the system named is CCR5. Kind of data set: Flow cytometry of CCR5 immunofluorescence in HIV-1 infected primary human astrocytes. Conditions: vs uninfected. It is filed as cell-based. Here is the method:
MOR and CCR5 immunoreactivity were detected by direct immunofluorescence in astroglial cells by flow cytometric analysis. Cells were washed in phosphate-buffered saline (PBS)-0.1% bovine serum albumin (BSA) buffer and incubated with primary MOR antibody followed by a secondary antibody conjugated to allophycocyanin (APC) (Biolegend, Inc; catalog #408001) and Alexa Fluor® 488 conjugated anti-mouse CD195 (CCR5) antibody (Biolegend, Inc; catalog #107008) in permeabilization buffer (PBS-0.1% BSA-0.1% Triton X-100) at a 1:500 dilution. Fluorescence was measured from 10,000 gated cells per treatment in each experiment using a FACSCanto II flow cytometer (BD Biosciences, San Jose, Calif.). Auto-fluorescence was compensated by setting the detector voltage to the minimum level that discriminates between auto-fluorescence and specific immunofluorescence in both negative and positive controls. Isotype control antibodies were used to define settings in histogram plot analyses.
We quantitatively analyzed the effect of MVC and the bivalent compound on CCR5 and MOR expression levels in virally infected astrocytes by flow cytometry. […] Approximately 20,000 events were analyzed per treatment condition in each experiment and size discrimination was used as a crude method for viability determination.

Sequence of CCR5 (Homo sapiens (Human), UniProt P51681) (P51681 whole entry): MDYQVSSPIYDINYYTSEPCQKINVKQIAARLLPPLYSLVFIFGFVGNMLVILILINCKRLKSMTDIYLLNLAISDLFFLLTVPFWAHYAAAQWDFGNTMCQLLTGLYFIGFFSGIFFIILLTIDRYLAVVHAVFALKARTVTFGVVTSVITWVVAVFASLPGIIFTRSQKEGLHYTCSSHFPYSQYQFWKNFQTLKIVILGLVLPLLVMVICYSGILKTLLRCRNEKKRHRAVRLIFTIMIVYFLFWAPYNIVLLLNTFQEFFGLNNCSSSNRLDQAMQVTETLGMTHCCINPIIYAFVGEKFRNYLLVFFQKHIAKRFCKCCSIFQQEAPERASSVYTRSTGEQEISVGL

Broadly, the melting point is the temperature of the solid-liquid transition. In the case of `Cc1nnc(C(C)C)n1C1CC2CCC(C1)N2CCC(NC(=O)C1CCC(F)(F)CC1)c1ccc(N)cc1` (stereo not shown), the melting point fell in the range of 109 to 110 °C.
For `Cc1nnc(C(C)C)n1C1C[C@H]2CC[C@@H](C1)N2CC[C@H](NC(=O)C1CCC(F)(F)CC1)c1ccccc1` (stereo in doubt) [Maraviroc, reference compound], in data set [1], the “effect on viral entry / Tat production, Example 4” value is “considerably inhibited viral entry” and the “effect on virus invasion (Tat expression), Example 3” value was “virus invasion is decreased”. For the same compound, the astrocyte viability result in the data set with human astrocytes (100 nM, HIV-1 ± morphine, 24 h) was “not significantly different”. Further, the “toxicity in the astrocytes, cytotoxicity assays (not shown)” value in the data set with human astrocytes (Example 3) is “neither maraviroc nor 1 had any toxicity”. For the same compound, the “toxicity to the cells at higher concentration” value in the data set with human astrocytes (concentration higher than 100 nM) is on record as “increased toxicity to the cells”. Moreover, in [2], the “effect on cell fusion” value is reported as “significantly lowered cell fusion”. Moreover, in [2] (morphine 300 nM), the “amplification of cell fusion inhibition when morphine present” value is on record as “not amplified”.
Regarding `O=C1CC[C@@]2(O)[C@H]3Cc4ccc(O)c5c4[C@@]2(CCN3CC2CC2)[C@H]1O5` [Naltrexone, reference compound], in data set [1], the “effect on viral entry / Tat production, Example 4” value is “did not show significant effect” and the “effect on virus invasion (Tat expression), Example 3” value was “no effect on virus invasion”.
As usually defined, the IC50 is the concentration that gives 50% inhibition. By Ki is commonly meant a measure of affinity in units of concentration, obtained from inhibition or displacement. For the compound `Cc1nnc(C(C)C)n1C1CC2CCC(C1)N2CC[C@H](NC(=O)C1CCC(F)(F)CC1)c1cccc(NC(=O)COCC(=O)NCCCCCCCNC(=O)COCC(=O)N[C@@H]2CC[C@@]3(O)[C@H]4Cc5ccc(O)c6c5[C@@]3(CCN4CC3CC3)[C@H]2O6)c1` (stereo partly shown) [compound 2], the IC50 at MOR [3] is 17.4 ± 5.74 nM; on CCR5 [4] (cells stimulated with RANTES), 14000 ± 345 nM; at MOR [5] (DAMGO stimulated, hMOR-CHO Gqi5, read-out: Ca2+ inhibition IC50 ± SEM), 37.8 ± 4.4 nM. Moreover, the “fold loss in CCR5 antagonist activity compared to maraviroc” value at CCR5 [4] was determined as 800 fold. Besides, the Ki at mu opioid receptor (MOR) (Example 1, read-out: binding affinity to the mu opioid receptor, Ki) is 9.18 ± 3.44 nM; on mu opioid receptor (MOR) (mean of three experiments, read-out: Radioligand binding Ki ± SEM), 9.2 ± 3.4 nM. For the same compound, the “effect on cell fusion” value in data set [2] was “significantly lowered cell fusion”. Also, the “amplification of cell fusion inhibition when morphine present” value in data set [2] (morphine 300 nM) was 2 fold. Further, at MOR [5] (hMOR-CHO Gqi5, data not shown), the “agonism in Ca2+ mobilization assay” value is listed as “No agonism”.
For `CN1CC[C@]23c4c5ccc(O)c4O[C@H]2[C@@H](O)C=C[C@H]3[C@H]1C5` [morphine, reference compound], the “fold increase in Tat expression after infection with R5 in combination with morphine” value in data set [1] (morphine 500 nM, vs uninfected) is listed as around 2.7 fold. Further, in the data set on CCR5 [6], the “fold increase in CCR5 expression levels, HIV-1R5 in combination with morphine” value was 3.3 fold. Moreover, the “effect of morphine on cell fusion” value in data set [2] (morphine 300 nM, +CD4, vs +CD4 alone) is “significant increase”.
